Experimental data published in patent US9006228B2 (Merck Sharp & Dohme Corp., priority 2011, dated 2015).

Target: T1, human GPR119 (Homo sapiens, UniProt Q8TDV5)
T1 sequence (Q8TDV5 1-308 limits assumed): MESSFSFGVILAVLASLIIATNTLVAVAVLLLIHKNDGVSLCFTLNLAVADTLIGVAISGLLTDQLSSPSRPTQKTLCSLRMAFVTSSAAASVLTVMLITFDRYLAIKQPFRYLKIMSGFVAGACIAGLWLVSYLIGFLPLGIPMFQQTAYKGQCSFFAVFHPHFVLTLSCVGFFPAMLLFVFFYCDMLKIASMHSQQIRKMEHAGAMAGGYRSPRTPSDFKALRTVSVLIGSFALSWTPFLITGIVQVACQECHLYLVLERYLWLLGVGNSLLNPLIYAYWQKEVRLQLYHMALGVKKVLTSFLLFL
Experiment: Measurement of GPR119 signaling (cAMP assay; LANCE kit or HTRF) in HEK293 cells stably transfected with human GPR119
Type: cell-based
Conditions: agonist-stimulated cAMP in HEK293 cells expressing human GPR119
Procedure, shortened: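 LANCE method: cAMP detected with Eu-chelate/biotin-cAMP tracer, 3 h, read at 665 nm, converted via cAMP standards; basal from DMSO, maximum from internal agonist, 4-parameter fit.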

For CCc1cnc(N2CCC([C@H]3C[C@H]3COCc3ccc(-c4cnc(N)nc4)c(F)c3)CC2)nc1 [Example 118, 5-{4-[({(1R,2R)-2-[1-(5-ethylpyrimidin-2-yl)piperidin-4-yl]cyclopropyl}methoxy)methyl]-2-fluorophenyl}pyrimidin-2-amine], the EC50 was 5.9 nM.

CCc1cnc(N2CCC([C@H]3C[C@H]3COCc3ccc(-c4cncnc4)cc3)CC2)nc1 [Example 120] showed an EC50 of 1.9 nM.

CCc1cnc(N2CCC([C@H]3C[C@H]3COCc3ccc(-c4ccnnc4)cc3)CC2)nc1 [Example 121] showed an EC50 of 1.9 nM.

Compound CCc1cnc(N2CCC([C@H]3C[C@H]3COCc3ccc(-c4cccnn4)cc3)CC2)nc1 [Example 122] has an EC50 of 1.1 nM.

Compound CCc1cnc(N2CCC([C@H]3C[C@H]3COCc3ccc(-c4cnccn4)cc3)CC2)nc1 [Example 123] has an EC50 of 9.8 nM.

For CCS(=O)(=O)c1ccc(COC[C@@H]2C[C@@H]2C2CCN(c3ncc(COC)cn3)CC2)c(F)c1 [Example 127, 2-(4-((1R,2R)-2-(((4-(ethylsulfonyl)-2-fluorobenzyl)oxy)methyl)cyclopropyl)piperidin-1-yl)-5-(methoxymethyl)pyrimidine], the EC50 was 2.8 nM.

With COCc1cnc(N2CCC([C@H]3C[C@H]3COCc3cc(F)c(S(C)(=O)=O)c(F)c3)CC2)nc1 [Example 128, 2-(4-((1R,2R)-2-(((3,5-difluoro-4-(methylsulfonyl)benzyl)oxy)methyl)cyclopropyl)piperidin-1-yl)-5-(methoxymethyl)pyrimidine] the EC50 was 4.5 nM.

In the case of CCOc1cnc(N2CCC([C@H]3C[C@H]3COCc3ccc(S(C)(=O)=O)c(F)c3)CC2)nc1 [Example 129, 5-ethoxy-2-(4-((1R,2R)-2-(((3-fluoro-4-(methylsulfonyl)benzyl)oxy)methyl)cyclopropyl)piperidin-1-yl)pyrimidine], the EC50 is reported as 1.65 nM.

Compound COCc1cnc(N2CCC([C@H]3C[C@H]3COCc3ccc(-n4cnnn4)c(F)c3)CC2)nc1 [Example 132, 2-(4-((1R,2R)-2-((3-fluoro-4-(1H-tetrazol-1-yl)benzyloxy)methyl)cyclopropyl)piperidin-1-yl)-5-(methoxymethyl)pyrimidine] has an EC50 of 1.1 nM.

CCc1cnc(N2CCC([C@H]3C[C@H]3COCc3ccc(-n4cnnn4)cn3)CC2)nc1 [Example 133, 2-(4-((1R,2R)-2-(((5-(1H-tetrazol-1-yl)pyridin-2-yl)methoxy)methyl)cyclopropyl)piperidin-1-yl)-5-ethylpyrimidine] showed an EC50 of 5.6 nM.

Work on CC(C)c1noc(N2CCC([C@H]3C[C@H]3COCc3ccc(-n4cnnn4)cc3F)CC2)n1 [Example 134, 5-(4-((1R,2R)-2-((2-fluoro-4-(1H-tetrazol-1-yl)benzyloxy)methyl)cyclopropyl)piperidin-1-yl)-3-isopropyl-1,2,4-oxadiazole] yielded an EC50 of 1.7 nM.

In the case of COCc1noc(N2CCC([C@H]3C[C@H]3COCc3ccc(-n4cnnn4)cc3F)CC2)n1 [Example 135, 5-(4-((1R,2R)-2-((2-fluoro-4-(1H-tetrazol-1-yl)benzyloxy)methyl)cyclopropyl)piperidin-1-yl)-3-(methoxymethyl)-1,2,4-oxadiazole], the EC50 is reported as 9.8 nM.

CC1(OC(=O)N2CCC([C@H]3C[C@H]3COCc3ccc(-n4cnnn4)cc3F)CC2)CC1 [Example 136, 1-methylcyclopropyl 4-((1R,2R)-2-((2-fluoro-4-(1H-tetrazol-1-yl)benzyloxy)methyl)cyclopropyl)piperidine-1-carboxylate] gave an EC50 of 4.8 nM.

In the case of CC(C)c1noc(N2CCC([C@H]3C[C@H]3COCc3ccc(CC(=O)N(C)C)cc3F)CC2)n1 [Example 137, 2-(3-fluoro-4-((((1R,2R)-2-(1-(3-isopropyl-1,2,4-oxadiazol-5-yl)piperidin-4-yl)cyclopropyl)methoxy)methyl)phenyl)-N,N-dimethylacetamide], the EC50 is reported as 1.6 nM.

COC1CN(C(=O)Cc2ccc(COC[C@@H]3C[C@@H]3C3CCN(c4nc(C(C)C)no4)CC3)c(F)c2)C1 [Example 138, 2-(3-fluoro-4-((((1R,2R)-2-(1-(3-isopropyl-1,2,4-oxadiazol-5-yl)piperidin-4-yl)cyclopropyl)methoxy)methyl)phenyl)-1-(3-methoxyazetidin-1-yl)ethanone] showed an EC50 of 2.2 nM.

CC(C)c1noc(N2CCC([C@H]3C[C@H]3COCc3ccc(CC(=O)N4CC(F)C4)cc3F)CC2)n1 [Example 139, 2-(3-fluoro-4-((((1R,2R)-2-(1-(3-isopropyl-1,2,4-oxadiazol-5-yl)piperidin-4-yl)cyclopropyl)methoxy)methyl)phenyl)-1-(3-fluoroazetidin-1-yl)ethanone] gave an EC50 of 0.89 nM.

For CC(C)c1noc(N2CCC([C@H]3C[C@H]3COCc3ccc(CC(=O)N(C)C)c(F)c3)CC2)n1 [Example 140, 2-(2-fluoro-4-((((1R,2R)-2-(1-(3-isopropyl-1,2,4-oxadiazol-5-yl)piperidin-4-yl)cyclopropyl)methoxy)methyl)phenyl)-N,N-dimethylacetamide], the EC50 was 0.66 nM.

Compound CC(C)c1noc(N2CCC([C@H]3C[C@H]3COCc3ccc(CC(=O)N4CCOCC4)c(F)c3)CC2)n1 [Example 141, 2-(2-fluoro-4-((((1R,2R)-2-(1-(3-isopropyl-1,2,4-oxadiazol-5-yl)piperidin-4-yl)cyclopropyl)methoxy)methyl)phenyl)-1-morpholinoethanone] has an EC50 of 1.2 nM.

With COC1CN(C(=O)Cc2ccc(COC[C@@H]3C[C@@H]3C3CCN(c4nc(C(C)C)no4)CC3)cc2F)C1 [Example 142, 2-(2-fluoro-4-((((1R,2R)-2-(1-(3-isopropyl-1,2,4-oxadiazol-5-yl)piperidin-4-yl)cyclopropyl)methoxy)methyl)phenyl)-1-(3-methoxyazetidin-1-yl)ethanone] the EC50 was 0.95 nM.

With CC(C)c1noc(N2CCC([C@H]3C[C@H]3COCc3ccc(CC(=O)N4CC(O)C4)c(F)c3)CC2)n1 [Example 143, 2-(2-fluoro-4-((((1R,2R)-2-(1-(3-isopropyl-1,2,4-oxadiazol-5-yl)piperidin-4-yl)cyclopropyl)methoxy)methyl)phenyl)-1-(3-hydroxyazetidin-1-yl)ethanone] the EC50 was 6.3 nM.

For COCc1noc(N2CCC([C@H]3C[C@H]3COCc3ccc(CC(=O)N4CCC4)c(F)c3)CC2)n1 [Example 144, 1-(azetidin-1-yl)-2-(2-fluoro-4-((((1R,2R)-2-(1-(3-(methoxymethyl)-1,2,4-oxadiazol-5-yl)piperidin-4-yl)cyclopropyl)methoxy)methyl)phenyl)ethanone], the EC50 was 11.4 nM.

Work on COCc1cnc(N2CCC([C@H]3C[C@H]3COCc3ccc(CC(=O)N4CCC4)cc3F)CC2)nc1 [Example 145, 1-(azetidin-1-yl)-2-(3-fluoro-4-((((1R,2R)-2-(1-(5-(methoxymethyl)pyrimidin-2-yl)piperidin-4-yl)cyclopropyl)methoxy)methyl)phenyl)ethanone] yielded an EC50 of 5.16 nM.

With COCc1cnc(N2CCC([C@H]3C[C@H]3COCc3ccc(CC(=O)N4CCOCC4)cc3F)CC2)nc1 [Example 146, 2-(3-fluoro-4-((((1R,2R)-2-(1-(5-(methoxymethyl)pyrimidin-2-yl)piperidin-4-yl)cyclopropyl)methoxy)methyl)phenyl)-1-morpholinoethanone] the EC50 was 3.23 nM.

Compound COCc1cnc(N2CCC([C@H]3C[C@H]3COCc3ccc(CC(=O)N(C)C)cc3F)CC2)nc1 [Example 147, 2-(3-fluoro-4-((((1R,2R)-2-(1-(5-(methoxymethyl)pyrimidin-2-yl)piperidin-4-yl)cyclopropyl)methoxy)methyl)phenyl)-N,N-dimethylacetamide] has an EC50 of 2.52 nM.

Work on COCc1cnc(N2CCC([C@H]3C[C@H]3COCc3ccc(CC(=O)N4CC(F)C4)cc3F)CC2)nc1 [Example 148, 2-(3-fluoro-4-((((1R,2R)-2-(1-(5-(methoxymethyl)pyrimidin-2-yl)piperidin-4-yl)cyclopropyl)methoxy)methyl)phenyl)-1-(3-fluoroazetidin-1-yl)ethanone] yielded an EC50 of 3.56 nM.
